We go through 25 molecules from ChEMBL document CHEMBL1201862, “PubChem BioAssay data set” (2004).

The target of experiment [1] is T1, Ubiquitin-conjugating enzyme E2 N (Homo sapiens, UniProt P61088).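 Further: Dose-response confirmation in a TR-FRET assay detecting UBC13-driven polyubiquitin chain formation, inhibition measured.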
T1 sequence (P61088 whole entry): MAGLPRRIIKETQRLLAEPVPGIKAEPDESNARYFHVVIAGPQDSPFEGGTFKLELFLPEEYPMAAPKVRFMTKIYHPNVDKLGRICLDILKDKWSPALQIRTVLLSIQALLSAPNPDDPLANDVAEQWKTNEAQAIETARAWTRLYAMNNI
In kind it is functional.

The next experiment deals with Cytochrome P450 3A4 (Homo sapiens, UniProt P08684). The settings on record: Potency.
Chain of Cytochrome P450 3A4 (P08684 whole entry): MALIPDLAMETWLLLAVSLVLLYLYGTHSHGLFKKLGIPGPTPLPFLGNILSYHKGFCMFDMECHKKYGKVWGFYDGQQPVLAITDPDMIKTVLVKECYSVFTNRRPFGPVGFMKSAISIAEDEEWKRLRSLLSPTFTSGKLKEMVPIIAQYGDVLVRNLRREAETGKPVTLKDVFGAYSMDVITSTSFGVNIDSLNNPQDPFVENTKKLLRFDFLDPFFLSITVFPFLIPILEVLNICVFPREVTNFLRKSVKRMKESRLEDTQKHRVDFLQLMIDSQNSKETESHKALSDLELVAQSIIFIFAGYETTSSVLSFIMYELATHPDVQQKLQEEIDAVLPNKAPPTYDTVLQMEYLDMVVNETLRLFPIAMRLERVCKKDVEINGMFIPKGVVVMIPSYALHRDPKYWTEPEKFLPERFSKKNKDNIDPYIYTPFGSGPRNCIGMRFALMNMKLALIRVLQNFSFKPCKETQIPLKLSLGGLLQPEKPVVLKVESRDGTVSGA
A further experiment addresses Nonstructural protein 1 (Influenza A virus, UniProt Q194T2). In kind it is functional, Influenza A virus (A/California/07/2009(H1N1)).
Experiment [2] has as its target T2, Calpain-2 catalytic subunit (Sus scrofa, UniProt P43367).
T2 sequence (P43367 whole entry): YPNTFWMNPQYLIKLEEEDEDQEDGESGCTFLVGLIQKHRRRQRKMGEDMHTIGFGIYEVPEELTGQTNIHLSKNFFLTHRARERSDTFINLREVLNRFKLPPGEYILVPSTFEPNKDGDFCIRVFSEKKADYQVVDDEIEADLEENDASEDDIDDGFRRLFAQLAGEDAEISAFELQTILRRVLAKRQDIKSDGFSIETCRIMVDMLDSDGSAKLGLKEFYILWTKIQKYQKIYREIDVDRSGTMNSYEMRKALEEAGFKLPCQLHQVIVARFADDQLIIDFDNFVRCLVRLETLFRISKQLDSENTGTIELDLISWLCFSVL
Kind of experiment: pig calpain II inhibitor potency, dose response, biochemical, fluorogenic peptide substrate (AID 1420). In kind it is functional.

The target of experiment [3] is T3, Zinc finger protein mex-5 (Caenorhabditis elegans, UniProt Q9XUB2).
T3 sequence (Q9XUB2 whole entry): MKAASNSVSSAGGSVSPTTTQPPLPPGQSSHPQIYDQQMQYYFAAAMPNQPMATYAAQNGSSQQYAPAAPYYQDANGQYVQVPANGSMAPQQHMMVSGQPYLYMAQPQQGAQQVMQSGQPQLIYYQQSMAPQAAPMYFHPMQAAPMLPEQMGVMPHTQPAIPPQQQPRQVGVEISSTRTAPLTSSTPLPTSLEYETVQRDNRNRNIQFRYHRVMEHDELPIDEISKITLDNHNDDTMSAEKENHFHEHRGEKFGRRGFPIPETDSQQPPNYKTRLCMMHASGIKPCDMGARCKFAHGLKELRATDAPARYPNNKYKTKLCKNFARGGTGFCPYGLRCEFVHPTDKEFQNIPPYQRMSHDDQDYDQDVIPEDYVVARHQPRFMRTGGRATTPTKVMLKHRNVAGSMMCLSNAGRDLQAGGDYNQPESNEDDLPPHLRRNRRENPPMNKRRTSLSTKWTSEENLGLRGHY
The experiment can be described thus: MEX-5/TCR-2 RNA interaction inhibitors, dose response, biochemical, C. elegans, fluorescence polarization (AID 1960).

In experiment [4] the target is T4, RNA-binding protein pos-1 (Caenorhabditis elegans, UniProt G5EF15).
T4 sequence (G5EF15 whole entry): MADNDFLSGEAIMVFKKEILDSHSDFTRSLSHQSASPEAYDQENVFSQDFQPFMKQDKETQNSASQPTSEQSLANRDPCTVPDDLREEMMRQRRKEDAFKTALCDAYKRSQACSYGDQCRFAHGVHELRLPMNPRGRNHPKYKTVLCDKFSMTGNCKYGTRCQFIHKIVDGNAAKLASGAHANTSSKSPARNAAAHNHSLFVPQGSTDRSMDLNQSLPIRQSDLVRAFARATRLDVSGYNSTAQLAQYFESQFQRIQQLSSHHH
The experiment can be described thus: inhibitors of POS-1/mex-3 RNA binding, dose response, biochemical, fluorescence polarization (AID 1964).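 Further: purified POS-1 fused to maltose binding protein made in E. coli; potency of compounds blocking POS-1 binding to fluorescent RNA.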

Experiment [5] can be described thus: inhibitors of SNCA 5'UTR-driven reporter translation, confirmation, H4 neuroglioma cells, luminescence (AID 1988). It is filed as functional, cell-based.
Experiment [6] is described as follows: Luminescence Cell-Based Dose Response HTS to Identify Inhibitors of 5'UTR Stem-Loop Driven Prion Protein mRNA Translation in H4 Neuroglioblastoma Cells. [Related pubchem assays: 1827 (Project Summary), 1813 (Primary HTS)]. It is filed as functional.
Experiment [7] can be described thus: inhibitors of firefly luciferase expression or activity, dose response, H4 neuroglioma cells, luminescence (AID 1990). It is filed as functional, cell-based.
Experiment [8] concerns the target Induced myeloid leukemia cell differentiation protein Mcl-1 (Homo sapiens, UniProt Q07820). It is filed as functional.
Experiment [9] can be described thus: ZM109 Env clade C HIV-1 fusion inhibitors, dose response, HeLa effector, CEM target cells, luciferase, cherry-pick (AID 652058). It is filed as functional, cell-based.
Experiment [10] is described as follows: inhibitors of clade B AD8 Env fusion, dose response, cell-based, cherry-pick (AID 652062).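 Further: luciferase signal from cell-cell fusion driven by HIV-1 clade B AD8 Env; potency is for inhibitors of fusion seen as a drop in luminescence.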 In kind it is functional.
A short description of experiment [11]: inhibitors of HIV Env-driven cell fusion, dose response, cherry-pick (AID 652057). It is filed as functional, cell-based.
Experiment [12] can be described thus: cytotoxicity in OVCAR8 ovarian cancer cells, dose response, PAX8 project, cell-based, plate reader, dry powder samples (AID 743197). In kind it is functional. As to conditions: OVCAR-8.
For another experiment, the target named is Paired box protein Pax-8 (Homo sapiens, UniProt Q06710). Kind of experiment: inhibitors of PAX8-driven TPO luciferase reporter, dose response, RMG-I cells, cherry-pick (AID 687027).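 Further: luciferase reporter driven by Pax8 target thyroperoxidase promoter measured by SteadyGlo luminescence.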 It is filed as functional, cell-based.
Chain of Paired box protein Pax-8 (Q06710 whole entry): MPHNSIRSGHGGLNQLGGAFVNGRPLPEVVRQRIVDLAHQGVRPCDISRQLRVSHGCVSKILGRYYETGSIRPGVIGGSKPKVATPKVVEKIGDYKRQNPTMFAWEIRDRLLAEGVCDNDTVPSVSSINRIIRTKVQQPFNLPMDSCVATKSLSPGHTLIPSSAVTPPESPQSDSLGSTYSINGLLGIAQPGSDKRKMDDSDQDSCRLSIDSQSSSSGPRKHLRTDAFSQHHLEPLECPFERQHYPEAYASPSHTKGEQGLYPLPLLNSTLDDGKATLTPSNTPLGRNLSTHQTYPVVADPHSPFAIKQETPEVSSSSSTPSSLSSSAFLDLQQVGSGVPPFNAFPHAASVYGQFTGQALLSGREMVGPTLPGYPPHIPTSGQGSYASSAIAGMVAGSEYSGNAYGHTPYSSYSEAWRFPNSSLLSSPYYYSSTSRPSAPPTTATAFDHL
For a further experiment, the system named is INS1. Kind of experiment: beta cell apoptosis inhibitors, cytokine rescue, dose response, luminescence, retest (AID 449756).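 Further: cell death triggered by IL-1 beta plus TNF-alpha plus IFN-gamma mixture; protective hits raise ATP signal compared with cytokine alone wells.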 It is filed as functional, cell-based. The settings on record: Rattus norvegicus.
A short description of experiment [13]: microbe, parasite or virus in culture. In kind it is functional. As to conditions: Mycobacterium tuberculosis.
The next experiment concerns the target Cytochrome P450 2D6 (Homo sapiens, UniProt P10635).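 Further: CYP2D6 member of a cytochrome P450 panel assay.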
The test system of experiment [14] is Streptococcus sp. 'group A'. Kind of experiment: growth inhibition of control SK(-) GAS strain, dose response, counter-screen for streptokinase expression inhibitor project, luminescence, kanamycin, BacTiterGlo, confirmation (AID 1900). It is filed as functional, organism-based.
For another experiment, the target named is T5, Streptokinase A (Streptococcus pyogenes serotype M1, UniProt P10520).
T5 sequence (P10520 whole entry): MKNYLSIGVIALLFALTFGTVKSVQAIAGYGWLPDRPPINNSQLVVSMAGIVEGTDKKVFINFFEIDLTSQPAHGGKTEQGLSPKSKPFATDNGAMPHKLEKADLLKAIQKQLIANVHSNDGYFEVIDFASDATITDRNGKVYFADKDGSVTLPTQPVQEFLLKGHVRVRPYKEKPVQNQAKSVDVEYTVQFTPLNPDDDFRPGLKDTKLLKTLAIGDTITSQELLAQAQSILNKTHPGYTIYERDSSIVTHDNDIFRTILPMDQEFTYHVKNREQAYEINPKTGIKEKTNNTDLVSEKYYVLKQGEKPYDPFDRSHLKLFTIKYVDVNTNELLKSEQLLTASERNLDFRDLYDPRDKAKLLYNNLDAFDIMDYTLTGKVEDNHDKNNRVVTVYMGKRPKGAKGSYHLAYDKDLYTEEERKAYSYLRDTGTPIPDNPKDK
Kind of experiment: S. pyogenes streptokinase expression inhibitors, potency, dose response, plasminogen activation absorbance, OD405 (AID 1914).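 Further: secreted streptokinase activity via plasminogen activation per viability signal from cell pellet.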 In kind it is functional, Streptococcus pyogenes M1 GAS.

The test system of another experiment is Streptococcus. Kind of experiment: Group A Streptococcus viability loss, dose response, counter-screen for streptokinase expression inhibitor project, luminescence, BacTiterGlo (AID 1915).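 Further: potency for reduction of bacterial viability or growth.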 In kind it is functional, organism-based.
A short description of experiment [15]: HEp-2 cell cytotoxicity, dose response, cytotoxicity control for RSV inhibitor project, HTS (AID 2410). The settings on record: human respiratory syncytial virus. It is filed as functional.
Experiment [16] can be described thus: Luminescence Cell-Based Dose Confirmation HTS to Identify Inhibitors of Platelet Dense Granule Release. [Related pubchem assays: 1663 (Primary HTS), 1678 (Summary of Project)]. In kind it is functional.
For experiment [17], the target named is Luciferin 4-monooxygenase (Photinus pyralis, UniProt P08659). The experiment can be described thus: firefly luciferase enzyme inhibitors, dose response, biochemical, luminescence (AID 1891).
Chain of Luciferin 4-monooxygenase (P08659 whole entry): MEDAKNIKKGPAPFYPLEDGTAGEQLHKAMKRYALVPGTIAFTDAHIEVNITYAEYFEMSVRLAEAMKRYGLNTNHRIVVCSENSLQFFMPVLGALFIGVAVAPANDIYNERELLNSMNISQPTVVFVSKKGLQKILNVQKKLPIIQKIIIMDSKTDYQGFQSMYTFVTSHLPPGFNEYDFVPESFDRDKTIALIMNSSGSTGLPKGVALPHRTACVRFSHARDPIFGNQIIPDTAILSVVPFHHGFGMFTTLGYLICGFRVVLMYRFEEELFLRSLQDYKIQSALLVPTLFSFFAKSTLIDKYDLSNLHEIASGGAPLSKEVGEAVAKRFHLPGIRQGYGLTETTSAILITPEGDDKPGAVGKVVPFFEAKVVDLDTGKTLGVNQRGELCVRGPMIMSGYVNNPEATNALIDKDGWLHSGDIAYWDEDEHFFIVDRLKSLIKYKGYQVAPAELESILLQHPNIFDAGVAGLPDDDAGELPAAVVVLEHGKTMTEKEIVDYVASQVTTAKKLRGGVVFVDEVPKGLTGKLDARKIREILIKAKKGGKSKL
The nature of experiment [18]: inhibitors of intracellular T. cruzi replication, confirmation, NIH3T3 host cells, beta-gal luminescence (AID 2044).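 Further: intracellular parasites grown in NIH/3T3 mouse fibroblasts as host cells; luminescent beta-galactosidase reporter signal from transgenic T. cruzi replicating inside host cells; inhibitors lower the luminescence signal.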 In kind it is functional, cell-based.
Experiment [19] can be described thus: cytotoxicity toward NIH3T3 fibroblasts, dose response, counter-screen, cell-based, ATP luminescence, mouse fibroblasts (AID 2010).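 Further: cells exposed to compound for about 90 hours before reading.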 It is filed as functional.

Activity calls are given as the source filed them. A value given as a limit tells only on which side of the number the result lay.

Chain of Nonstructural protein 1 (Q194T2 whole entry): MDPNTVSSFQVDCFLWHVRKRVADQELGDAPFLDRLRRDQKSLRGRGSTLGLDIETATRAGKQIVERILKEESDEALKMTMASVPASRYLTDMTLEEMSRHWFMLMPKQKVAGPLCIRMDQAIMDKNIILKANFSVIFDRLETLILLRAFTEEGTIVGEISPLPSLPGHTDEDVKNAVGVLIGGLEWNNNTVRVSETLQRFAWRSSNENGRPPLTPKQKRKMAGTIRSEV
Chain of Cytochrome P450 2D6 (P10635 whole entry): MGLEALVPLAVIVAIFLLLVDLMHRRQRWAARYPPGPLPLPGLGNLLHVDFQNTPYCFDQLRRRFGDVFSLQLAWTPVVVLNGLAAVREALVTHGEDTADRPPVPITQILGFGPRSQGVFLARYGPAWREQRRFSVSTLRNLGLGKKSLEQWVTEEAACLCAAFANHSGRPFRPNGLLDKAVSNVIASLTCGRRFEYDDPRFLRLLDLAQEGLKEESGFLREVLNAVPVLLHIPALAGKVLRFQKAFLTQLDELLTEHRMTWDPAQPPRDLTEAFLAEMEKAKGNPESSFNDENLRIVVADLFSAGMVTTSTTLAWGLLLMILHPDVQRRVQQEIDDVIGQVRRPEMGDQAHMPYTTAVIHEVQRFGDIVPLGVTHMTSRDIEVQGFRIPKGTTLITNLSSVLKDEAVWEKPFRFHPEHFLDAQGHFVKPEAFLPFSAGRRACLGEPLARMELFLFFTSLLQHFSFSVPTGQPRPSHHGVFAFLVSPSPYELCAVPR
Chain of Induced myeloid leukemia cell differentiation protein Mcl-1 (Q07820 whole entry, the tested form may be a part): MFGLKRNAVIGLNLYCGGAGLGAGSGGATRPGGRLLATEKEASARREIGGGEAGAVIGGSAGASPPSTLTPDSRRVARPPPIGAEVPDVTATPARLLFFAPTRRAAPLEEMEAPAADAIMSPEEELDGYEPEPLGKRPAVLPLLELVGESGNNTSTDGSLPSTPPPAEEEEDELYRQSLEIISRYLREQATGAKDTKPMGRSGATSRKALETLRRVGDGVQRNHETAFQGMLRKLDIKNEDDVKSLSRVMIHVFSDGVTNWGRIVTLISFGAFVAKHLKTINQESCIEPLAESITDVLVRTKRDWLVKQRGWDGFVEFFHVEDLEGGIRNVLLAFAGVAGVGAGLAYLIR

In the case of `CCN1C(NCc2ccc(OC)cc2)=N[C@@H](CCc2ccccc2)[C@H](C(=O)NCc2ccc(OC)cc2)[C@H]1C`, in experiment [1], the IC50 is > 20 µM (inactive).

In the case of `C=C(C)C(O)/C=C/C=C/c1ccccc1` (stereo not drawn), the AC50 at Cytochrome P450 3A4 was 3.98 µM (inconclusive). Consider `O=[N+]([O-])c1ccc(N=Nc2ccc(O)c3ccccc23)cc1`, for which, at Nonstructural protein 1, the IC50 was 25.9 µM (active). As to `O=C(O)CC(NC(=O)C1c2ccccc2Oc2ccccc21)c1ccc(OC2CCCC2)cc1` (stereo not drawn), in [2], the IC50 is reported as 6.06 µM (not active). For `COC(=O)c1cccc(NC(=O)c2cccc(OC)c2)c1`, the IC50 in experiment [2] is listed as 14.6 µM (not active). Regarding `COc1ccc2nc(NN=C(C)c3ccccn3)cc(C)c2c1`, the IC50 on Nonstructural protein 1 is 7.94 µM (active). In the case of `CC(C)CC1(C(=O)NCc2ccccn2)C=CCN1C(=O)c1ccccc1` (stereo not drawn), the AC50 on Cytochrome P450 3A4 was 15.8 µM (inconclusive). With `Cc1cc(C(=O)O)ccc1-n1c(C)cc(/C=C(/C#N)C(=O)Nc2ccccc2)c1C`, in experiment [2], the IC50 is 12.6 µM (not active). In addition, the EC50 in experiment [3] and in [4] was > 300 µM (not active) throughout. For `O=C(CN1C(=O)C2CCCCC2C1=O)Nc1nc(-c2ccccn2)cs1` (stereo not drawn), the EC50 is > 120 µM (not active) in experiment [5], 14.3 µM (active) in experiment [6] and > 120 µM (not active) in experiment [7]. Further, the IC50 on Nonstructural protein 1 was 16 µM (active). `Cc1ccc(NS(=O)(=O)c2cc([N+](=O)[O-])ccc2NNC(=S)Nc2cccc(Cl)c2)c(C)c1`: the values for the IC50 (on Nonstructural protein 1; in [8]) were 17 µM (active) and 5.74 µM (not active), respectively. As to `C[C@H]1CN([C@@H](C)CO)C(=O)c2c(c3ccccc3n2C)-c2ccccc2CO[C@H]1CN(C)C(=O)Cc1ccccc1`, the AC50 in experiment [9], in experiment [10] and in experiment [11] was < 0.26 µM (active) in each case. In the case of `COc1cccc(O)c1O` [3-METHOXYCATECHOL], on Cytochrome P450 3A4, the AC50 is 20 µM (inconclusive). Consider `CC(=O)c1c(C(C)=O)c(C)n(C(c2ccccc2)c2ccccc2)c1C`, for which the IC50 in [2] is given as > 50 µM (not active). Consider `C[C@@H]1CN([C@@H](C)CO)C(=O)c2cc(NC(=O)Nc3ccc(C(F)(F)F)cc3)ccc2O[C@@H](C)CCCCO[C@@H]1CN(C)Cc1ccccc1`, for which the results for the AC50 (in [12]; at Paired box protein Pax-8) were > 60 µM (inactive) and 9.49 µM (active), respectively.

For the molecule `CC(=O)OC1CCC2(C)C3=C(CCC2C1(C)C)[C@]1(C)CCC(C(C)CCC=C(C)C)[C@]1(C)CC3` (stereo partly drawn), the AC50 on Cytochrome P450 3A4 is 31.6 µM (inconclusive). On to `COC(=O)C1=C(c2ccc(OCc3ccccc3)cc2)C[C@@H]2CC[C@H]1N2C(=O)NC1CCN(Cc2ccccc2)CC1`, for which, in the experiment on INS1, the AC50 was 3.96 µM (active). Besides, in experiment [13], the CC50 is 17.6 µM (active). In addition, in experiment [1], the IC50 was > 20 µM (inactive). In the case of `C=CC(C1=CC(=O)C=CC1=O)c1ccccc1` (stereo not drawn) [DALBERGIONE], the AC50 on Cytochrome P450 3A4 is 31.6 µM (inconclusive). `COc1ccc(CNn2c(C)nc3ccccc3c2=O)cc1`: at Cytochrome P450 2D6, the AC50 is 25.1 µM (inconclusive). Besides, in experiment [1], the IC50 was > 20 µM (inactive). Turning to `O=C(Nc1ccccc1C(=O)O)c1cccc(NC(=O)c2ccc(Br)o2)c1`, the EC50 in experiment [14] was 6.27 µM (active); on Streptokinase A, 6.41 µM (active); in the experiment on Streptococcus, 9.37 µM (active). For the same molecule, the IC50 in [2] is 12.1 µM (not active). Take `CC(=O)OC1CC2C(C)(C)C(O)C=C[C@@]2(C)C2CC[C@@]3(C)C(c4ccoc4)OC(=O)C4OC43[C@]12C` (stereo partly drawn): the AC50 at Cytochrome P450 3A4 is 12.6 µM (inconclusive).

Consider `N=C1C=CC(=C(c2cccc(N)c2)c2cccc(N)c2)C=C1`, for which, at Cytochrome P450 3A4, the AC50 was 5.01 µM (active). Consider `C[C@H]1CN([C@@H](C)CO)C(=O)c2cc(NC(=O)Nc3ccc4c(c3)OCO4)ccc2O[C@H]1CN(C)S(=O)(=O)c1cccs1`, for which the AC50 in experiment [9] was 24.7 µM (active); in experiment [10] it was 29.3 µM (active); in [11], 6.19 µM (active). Regarding `CCOC(=O)c1c(C)[nH]c(C(=O)COC(=O)C23CC4CC(CC(Cl)(C4)C2)C3)c1C`, the IC50 in experiment [2] was 4.08 µM (not active). The CC50 in experiment [15] was > 50 µM (active).

As to `COc1cccc(/C=N/Nc2ccnc(O)n2)c1O`, the AC50 in the experiment on INS1 was 0.67 µM (active). The EC50 is 10.7 µM (active) in [16] and > 112 µM (not active) in experiment [17]. The IC50 at Nonstructural protein 1 is 10.6 µM (active).

`Cc1cc2ccccc2n1CCNC(=O)C(C)Oc1ccccc1` (stereo not drawn): the EC50 in experiment [18] was 0.705 µM (active); in [19] it was 13.8 µM (active). Besides, the IC50 at Nonstructural protein 1 was 64.6 µM (active).
